Assays:
DSS-induced colitis = assay: DSS-induced colitis; type: in vivo, male C57 mice
Procedure: The 8 to 10 week old male C57 mice (18-20 g) were used in the study. Animals were divided into two experimental groups: vehicle control and compound of formula (Ia). Same day animals were provided 2% dextran sulfate sodium (DSS) solution in water for 7 days. Animals were treated with vehicle or compound of formula (Ia) (15 mg/kg) by oral route daily for 10 days. Body weight was recorded daily for 10 days. Disease activity score was evaluated based on stool consistency and rectal bleeding (Kim JJ et al., 2012). Relative colon length was measured. Colon myeloperoxidase (MPO) activity was estimated (Kim JJ et al., 2012).

TNBS-induced colitis = assay: TNBS-induced colitis; type: in vivo, Female BalbC mice; details: 15 mg/kg orally, Balb/c mice
Procedure: Female BalbC mice (6-8 weeks old) were used in the study. Mice were sensitized by topical application of 1% trinitrobenzene sulfonic acid (TNBS) in acetone/olive oil solution (4:1). After 7 days of sensitization, mice were challenged with 2.5% TNBS solution by intra-rectal route administered 5 mL/kg of body weight under anesthesia. Mice were monitored for development of disease over 5 days. TNBS-treated mice were randomly divided into 2 groups: TNBS-control (TNBS) and TNBS + compound of formula (Ia) (15 mg/kg, orally). Treatment was started on one day before TNBS challenge (2.5 %) and continued up to day 5 after TNBS challenge (2.5%). Animals were monitored for body weight change daily for 5 days. Intestinal permeability was estimated by Evans blue method (Han ED et al., 2002).

SMILES: O=C(O)CNC(=O)c1c(O)c2ccccc2n(OCC2CC2)c1=O [Compound of formula (Ia), Desidustat]
- reduction of colon MPO against vehicle control (DSS-induced colitis; 15 mg/kg oral daily for 10 days, colon myeloperoxidase activity): 74.9 ± 5.0%
- decrease in disease activity score when compared with vehicle control (DSS-induced colitis; 15 mg/kg oral daily for 10 days, score based on stool consistency and rectal bleeding): 31.8 ± 9.8%
- increase in body weight against vehicle control (DSS-induced colitis; 15 mg/kg oral daily, after ten days of treatment, 2% DSS for 7 days): 49.0 ± 12.9%
- weight gain when compared with vehicle control (TNBS-induced colitis; 5th day after TNBS challenge): 17.4 ± 1.4%
- decrease in intestinal permeability when compared against vehicle control (TNBS-induced colitis; Evans blue method): 51.7 ± 4.4%

Reference: patent US20230233550A1, “TREATMENT FOR THE INFLAMMATORY BOWEL DISEASE” (priority 2020, published 2023)
